Values joined by “and” are separate entries in the source; they are usually repeats but may differ in a detail not shown here. Identical values can stand only once.
How the values were obtained:
Assay type in all cases: biochemical
[1] = Suture testing in ethyl acetate containing CaSt: detection of LPS on suture; conditions: LPS-contaminated suture submerged in Ethyl Acetate w/ 5% Calcium Stearate, vortexed 10 seconds
Method: An absorbable VICRYL® (Polyglactin 910) suture (Size 1, Length: 27in) made of a copolymer made from 90% glycolide and 10% L-lactide was exposed to a solution containing LPS (endotoxin) (9 Strands of Vicryl suture were immersed in tubing with endotoxin solution (SRW, Concentration: 3980 EU/mL) for 10 minutes at a time at ambient temperature. The sutures were air dried for 20 minutes in a vented chemical hood and then placed in round bottom and dried The suture was then immersed into Ethyl Acetate (EtAc) containing CaSt, vortexed briefly for 10 seconds, dried for 20 minutes in a vented chemical hood, and extracted in endotoxin free water at ambient temperature. The suture extracted in endotoxin free water (LRW) was then tested for LPS using the Kinetic Chromogenic Method for Endotoxin Quantitation, Charles River Laboratories, Charleston S.C.

[2] = Wound dressing (fibrin pad) spiked with LPS, treated in cyclohexane containing CaSt; conditions: Tube 2: 10 mL cyclohexane with 0.1 g CaSt, 15 minutes rolling; for Endotoxin detected on Pad (EU): pad spiked 8.9 EU
Method: A wound dressing containing dry fibrinogen and dry thrombin on an absorbable support was tested as follows. The pad was spiked with LPS and then exposed to cyclohexane containing CaSt to determine the effect on detectable LPS.
Three 1x2 inch pieces of the dressing were spiked with endotoxin resulting in 8.9 EU of LPS. The pieces were allowed to dry for 20 minutes, then placed into 50 mL polypropylene conical tubes. 7.5 mL of LAL reagent water +2.5 mL 0.25M tris buffer was added to Tube 1. 10 mL of cyclohexane with 0.1 g of CaSt was added to Tube 2. 10 mL of cyclohexane was added to Tube 3. The tubes were closed and then placed on the bottle roller rotator machine for 15 minutes so that the tube could continuously roll and the dressing was constantly in contact with liquid.
Tube 1 solution was then diluted and tested for endotoxin on the MCS system. The fibrin pad pieces from Tube 2 and Tube 3 were removed and placed in new tubes and extracted in 7.5 mL of LAL reagent water + 2.5 mL 0.25M tris buffer. The solutions were then tested on the MCS system for endotoxin (LPS). Table 9. Results of testing of dressing in cyclohexane containing CaSt

[3] = Effect of storage (dwell time) on efficacy of pre-mixed CaSt suspensions, sonicated or vortexed
Method: Efficacy of pre-mixed CaSt suspensions (sonicated and vortexed) was tested, comparing efficacy of immediately prepared suspensions with suspensions having shelf life or dwell time of 90 min, 5 days, and 1 month prior to contact with endotoxin containing solutions.
10 mL SRW was then introduced to the sonicated CaSt mixture. It was then vortexed for 5 seconds to fully incorporate the sonicated CaSt. The mixture was then tested after 15 minutes of interaction to measure the percent decrease of endotoxin.
10 mL SRW was then introduced to the vortexed CaSt mixture. It was then vortexed for 5 seconds to fully incorporate the sonicated CaSt. The mixture was then tested after 15 minutes of interaction to measure the percent decrease of endotoxin.
These mixtures were then tested on the Charles River MCS at a dilution of 1:2000 after 15 minutes of interaction.
Testing of suspensions having shelf life or dwell time of 90 min, 5 days, and 1 month prior to contact with endotoxin containing solutions.
Test samples were prepared as described above, sonicated and vortexed, but were subjected to shelf life or dwell time of 90 min, 5 days, and 1 month prior to contact with endotoxin containing solution (SRW). After dwell time exposure, similarly to the immediate mixing test above, 10 mL SRW was then introduced to the sonicated or vortexed CaSt mixture. It was then vortexed for 5 seconds to fully incorporate the sonicated CaSt. The mixture was then tested after 15 minutes of interaction to measure the percent decrease of endotoxin. These mixtures were then tested on the Charles River MCS at a dilution of 1:2000 after 15 minutes of interaction.
*The 1 month shelf life sample was only tested at 0.04g CaSt and measured the percent removal after 15 minutes of interaction as well as 30 minutes after interaction.

[4] = 0.02 g CaSt, Sonicated, 5 Day dwell time

SMILES: CCCCCCCCCCCCCCCCCC(=O)O [Calcium Stearate]
- Endotoxin Detected (EU) [1]: 23.4 EU and 21.78 EU and 25.62 EU
- Percent Endotoxin detected as compared to Tube 1 ([2]; Tube 1 = no cyclohexane, 8.9 EU): 20.2%
- Endotoxin detected on Pad (EU) [2]: 1.8 EU
- Endotoxin detected on Pad (EU) ([2]; listed as CaSt): 2 EU
- Average Percent Change [3, 4]: 76%
- Percent Endotoxin Removed [3, 4]: 76%
- EU After ([3]; 0.02 g CaSt, Sonicated, 5 Day dwell time, 15 minutes, EU Before 37,800): 9,200 EU
- Average Percent Change ([3]; 0.02 g CaSt, Sonicated, 90 min dwell time): 61%
- EU After ([3]; 0.02 g CaSt, Sonicated, 90 min dwell time, 15 minutes, EU Before 36,100, listed as Aged Sonicated CaSt #1): 15120 EU
- EU After ([3]; 0.02 g CaSt, Sonicated, 90 min dwell time, 15 minutes, EU Before 36,100, listed as Aged Sonicated CaSt #2): 12,960 EU
- Percent Endotoxin Removed ([3]; 0.02 g CaSt, Sonicated, 90 min dwell time, listed as Aged Sonicated CaSt #1): 58%
- Percent Endotoxin Removed ([3]; 0.02 g CaSt, Sonicated, 90 min dwell time, listed as Aged Sonicated CaSt #2): 64%
- Average Percent Change ([3]; 0.02 g CaSt, Sonicated, Immediate Mixing): 74%
- EU After ([3]; 0.02 g CaSt, Sonicated, Immediate Mixing, 15 minutes, EU Before 36,100, listed as Sonicated CaSt #1): 8,960 EU
- EU After ([3]; 0.02 g CaSt, Sonicated, Immediate Mixing, 15 minutes, EU Before 36,100, listed as Sonicated CaSt #2): 10,240 EU
- Percent Endotoxin Removed ([3]; 0.02 g CaSt, Sonicated, Immediate Mixing, listed as Sonicated CaSt #1): 75%
- Percent Endotoxin Removed ([3]; 0.02 g CaSt, Sonicated, Immediate Mixing, listed as Sonicated CaSt #2): 72%
- Average Percent Change ([3]; 0.02 g CaSt, Vortexed, 5 Day dwell time): 64%
- EU After ([3]; 0.02 g CaSt, Vortexed, 5 Day dwell time, 15 minutes, EU Before 37,800, listed as Aged Vortexed CaSt #3): 15,120 EU
- EU After ([3]; 0.02 g CaSt, Vortexed, 5 Day dwell time, 15 minutes, EU Before 37,800, listed as Aged Vortexed CaSt #4): 12,160 EU
- Percent Endotoxin Removed ([3]; 0.02 g CaSt, Vortexed, 5 Day dwell time, listed as Aged Vortexed CaSt #3): 60%
- Percent Endotoxin Removed ([3]; 0.02 g CaSt, Vortexed, 5 Day dwell time, listed as Aged Vortexed CaSt #4): 68%
- Average Percent Change ([3]; 0.02 g CaSt, Vortexed, 90 min dwell time): 43%
- EU After ([3]; 0.02 g CaSt, Vortexed, 90 min dwell time, 15 minutes, EU Before 36,100, listed as Aged Vortexed CaSt #1): 22,400 EU
- EU After ([3]; 0.02 g CaSt, Vortexed, 90 min dwell time, 15 minutes, EU Before 36,100, listed as Aged Vortexed CaSt #2): 19280 EU
- Percent Endotoxin Removed ([3]; 0.02 g CaSt, Vortexed, 90 min dwell time, listed as Aged Vortexed CaSt #1): 38%
- Percent Endotoxin Removed ([3]; 0.02 g CaSt, Vortexed, 90 min dwell time, listed as Aged Vortexed CaSt #2): 47%
- Average Percent Change ([3]; 0.02 g CaSt, Vortexed, Immediate Mixing): 32%
- EU After ([3]; 0.02 g CaSt, Vortexed, Immediate Mixing, 15 minutes, EU Before 36,100, listed as Aged Vortexed CaSt #1): 29,200 EU
- EU After ([3]; 0.02 g CaSt, Vortexed, Immediate Mixing, 15 minutes, EU Before 36,100, listed as Aged Vortexed CaSt #2): 20,480 EU
- Percent Endotoxin Removed ([3]; 0.02 g CaSt, Vortexed, Immediate Mixing, listed as Aged Vortexed CaSt #1): 20%
- Percent Endotoxin Removed ([3]; 0.02 g CaSt, Vortexed, Immediate Mixing, listed as Aged Vortexed CaSt #2): 43%
- EU After ([3]; 0.04 g CaSt, Sonicated, Immediate Mixing with 10 mL SRW, 15 minutes, EU Before 36,100, listed as Sonicated CaSt #1): 5,320 EU
- EU After ([3]; 0.04 g CaSt, Sonicated, Immediate Mixing with 10 mL SRW, 15 minutes, EU Before 36,100, listed as Sonicated CaSt #2): 5,800 EU
- Average Percent Change ([3]; 0.04 g CaSt, Sonicated, Immediate Mixing, 15 minutes): 85%
- Percent Endotoxin Removed ([3]; 0.04 g CaSt, Sonicated, Immediate Mixing, 15 minutes, listed as Sonicated CaSt #1): 85%
- Percent Endotoxin Removed ([3]; 0.04 g CaSt, Sonicated, Immediate Mixing, 15 minutes, listed as Sonicated CaSt #2): 84%
- Average Percent Change ([3]; 0.04 g CaSt, Sonicated, Mixing after 1 Month dwell time): 50%
- EU After ([3]; 0.04 g CaSt, Sonicated, Mixing after 1 Month dwell time, 15 minutes, EU Before 14650, listed as Aged Sonicated CaSt #1): 7440 EU
- EU After ([3]; 0.04 g CaSt, Sonicated, Mixing after 1 Month dwell time, 15 minutes, EU Before 14650, listed as Aged Sonicated CaSt #2): 7240 EU
- Percent Endotoxin Removed ([3]; 0.04 g CaSt, Sonicated, Mixing after 1 Month dwell time, listed as Aged Sonicated CaSt #1): 49.2%
- Percent Endotoxin Removed ([3]; 0.04 g CaSt, Sonicated, Mixing after 1 Month dwell time, listed as Aged Sonicated CaSt #2): 50.6%
- Average Percent Change ([3]; 0.04 g CaSt, Sonicated, Mixing after 5 Days dwell time): 85%
- EU After ([3]; 0.04 g CaSt, Sonicated, Mixing after 5 Days dwell time, 15 minutes, EU Before 37,800, listed as Aged Sonicated CaSt #3): 5,040 EU
- EU After ([3]; 0.04 g CaSt, Sonicated, Mixing after 5 Days dwell time, 15 minutes, EU Before 37,800, listed as Aged Sonicated CaSt #4): 6,560 EU
- Percent Endotoxin Removed ([3]; 0.04 g CaSt, Sonicated, Mixing after 5 Days dwell time, listed as Aged Sonicated CaSt #3): 87%
- Percent Endotoxin Removed ([3]; 0.04 g CaSt, Sonicated, Mixing after 5 Days dwell time, listed as Aged Sonicated CaSt #4): 83%
- Average Percent Change ([3]; 0.04 g CaSt, Sonicated, Mixing after 90 min dwell time): 81%
- EU After ([3]; 0.04 g CaSt, Sonicated, Mixing after 90 min dwell time, 15 minutes, EU Before 36,100, listed as Aged Sonicated CaSt #1): 6168 EU
- EU After ([3]; 0.04 g CaSt, Sonicated, Mixing after 90 min dwell time, 15 minutes, EU Before 36,100, listed as Aged Sonicated CaSt #2): 8,000 EU
- Percent Endotoxin Removed ([3]; 0.04 g CaSt, Sonicated, Mixing after 90 min dwell time, listed as Aged Sonicated CaSt #1): 83%
- Percent Endotoxin Removed ([3]; 0.04 g CaSt, Sonicated, Mixing after 90 min dwell time, listed as Aged Sonicated CaSt #2): 78%
- Average Percent Change ([3]; 0.04 g CaSt, Vortexed, Immediate Mixing): 44%
- EU After ([3]; 0.04 g CaSt, Vortexed, Immediate Mixing, 15 minutes, EU Before 36,100, listed as Aged Vortexed CaSt #1): 19,840 EU
- EU After ([3]; 0.04 g CaSt, Vortexed, Immediate Mixing, 15 minutes, EU Before 36,100, listed as Aged Vortexed CaSt #2): 20480 EU
- Percent Endotoxin Removed ([3]; 0.04 g CaSt, Vortexed, Immediate Mixing, listed as Aged Vortexed CaSt #1): 45%
- Percent Endotoxin Removed ([3]; 0.04 g CaSt, Vortexed, Immediate Mixing, listed as Aged Vortexed CaSt #2): 43%
- Average Percent Change ([3]; 0.04 g CaSt, Vortexed, Mixing after 5 Days dwell time): 75%
- EU After ([3]; 0.04 g CaSt, Vortexed, Mixing after 5 Days dwell time, 15 minutes, EU Before 37,800, listed as Aged Vortexed CaSt #3): 9,080 EU
- EU After ([3]; 0.04 g CaSt, Vortexed, Mixing after 5 Days dwell time, 15 minutes, EU Before 37,800, listed as Aged Vortexed CaSt #4): 9,760 EU
- Percent Endotoxin Removed ([3]; 0.04 g CaSt, Vortexed, Mixing after 5 Days dwell time, listed as Aged Vortexed CaSt #3): 76%
- Percent Endotoxin Removed ([3]; 0.04 g CaSt, Vortexed, Mixing after 5 Days dwell time, listed as Aged Vortexed CaSt #4): 74%
- Average Percent Change ([3]; 0.04 g CaSt, Vortexed, Mixing after 90 min dwell time): 54%
- EU After ([3]; 0.04 g CaSt, Vortexed, Mixing after 90 min dwell time, 15 minutes, EU Before 36,100, listed as Aged Vortexed CaSt #1): 17,120 EU
- EU After ([3]; 0.04 g CaSt, Vortexed, Mixing after 90 min dwell time, 15 minutes, EU Before 36,100, listed as Aged Vortexed CaSt #2): 16,460 EU
- Percent Endotoxin Removed ([3]; 0.04 g CaSt, Vortexed, Mixing after 90 min dwell time, listed as Aged Vortexed CaSt #1): 53%
- Percent Endotoxin Removed ([3]; 0.04 g CaSt, Vortexed, Mixing after 90 min dwell time, listed as Aged Vortexed CaSt #2): 54%

— patent publication EP3355943B1, “METHODS AND SYSTEMS FOR TREATING MEDICAL DEVICES AND FLUIDS” (Ethicon, Inc., priority 2015, dated 2017)
